The subject of data set [1] is MCF7 cells. Nature of the data set: Cell viability assay (CellTiter-Glo), MCF7, 120 h. The data set is classed as cell-based, human. As to conditions: for IC50: read-out: IC50, MCF7. The method, then:
(§1) Tumor cell lines (the rat pancreatic tumor cell line AR42J and the human breast carcinoma cell line MCF7) were obtained from the American Type Culture Collection and were grown according to standard protocols.
(§2) The effects of the cryptophycin-55-glycinate-octreotide conjugate of Example 5 on the viability of the tumor cell lines AR42J (STTR2^high) and MCF7 (SSTR2^low) were assessed using the CellTiter-Glo® Luminescent Cell Viability Assay (Promega), according to the manufacturer protocol. Cells were plated in black-walled 96-well plates (5000 cells per well) and allowed to adhere overnight at 37° C. in a humidified atmosphere of 5% CO2. Medium was then removed and replaced by fresh culture medium containing increasing concentrations of cryptophycin-55-glycinate-octreotide conjugate (CRY55-Gly-Oct), unconjugated octreotide, or free cryptophycin-55-glycinate (CRY55-Gly), and the cells were incubated for 120 h at 37° C. in 5% CO2. Nine triplicate 1:3 serial dilution datapoints were recorded for each experimental condition (from 0.0015 nM to 10 nM for CRY55-Gly and CRY55-Gly-Oct, from 0.0015 uM to 10 uM for the unconjugated octreotide). At the end of the incubation luminescence was measured using a Perkin Elmer Wallac 1450 MicroBeta TriLux detector. Compound cytotoxicity was evaluated in comparison to cells treated with 0.1% DMSO. IC50 values were calculated by fitting viability data with a four-parameter logistic equation using a Kaleidagraph software. Residual cell viability plots obtained upon treatment of the AR42J and MCF7 cells with the different compounds are shown in FIG. 3 and FIG. 4, respectively.

The subject of data set [2] is AR42J cells. The data set is described as follows: Cell viability assay (CellTiter-Glo), AR42J, 120 h. The data set is classed as cell-based, rat. The following applies: 120 h incubation; for IC50: SSTR2-high AR42J. The method, then: as §1, §2
(ATP-based viability assays read luminescence as a measure of living cells.)

Data set [3] has as its system H69 cells. The data set is described as follows: Cell viability assay (CellTiter-Glo), H69 wild type. The data set is classed as cell-based. As to conditions: wild type H69, 120 h incubation. The procedure:
(§3) H69 cells and the drug-resistant counterpart H69AR were obtained from the American Type Culture Collection and were grown according to standard protocols. The effects of cryptophycin and cryptophycin conjugates on the viability of wild type and drug resistant tumor cell lines were assessed using the CellTiter-Glo® Luminescent Cell Viability Assay (Promega), according to the manufacturer protocol. Cells were plated in black-walled 96-well plates (5000 cells per well) and allowed to adhere overnight at 37° C. in a humidified atmosphere of 5% CO2. Medium was then removed and replaced by fresh culture medium containing increasing concentrations of cryptophycin analogs or doxorubicin as a control. Cells were incubated with compounds for 120 h at 37° C. in 5% CO2. Eight triplicate 1:3 serial dilution datapoints were recorded for each experimental condition (from […] to 10 nM for CRY55-Gly, CRY55-Gly-LINKER73 and CRY55-Gly-LINKER76, from 1.2 nM to 2700 nM for doxorubicin). At the end of the incubation, luminescence was measured using a Perkin Elmer Wallac 1450 MicroBeta TriLux detector. Compound cytotoxicity was evaluated in comparison to cells treated with 0.1% DMSO.

Data set [4] relates to H69AR cells. The data set is described as follows: Cell viability assay (CellTiter-Glo), drug-resistant H69AR. As to conditions: for IC50: 120 h incubation. The data set is classed as cell-based. The procedure:
as §3

In data set [5] the test system is SK-BR3 cells. Nature of the data set: Cell viability assay (CellTiter-Glo), SK-BR3. The data set is classed as cell-based. As to conditions: read-out: SK-BR3 CC50. The method, then:
(§4) Tumor cell lines (breast carcinoma cell lines SKBR-3 and MCF7 and colon carcinoma cell line HCT116) were obtained from American Type Culture Collection and were grown according to standard protocols. […] The effects of the cryptophycin-55-glycinate ADC conjugate on tumor cell viability were assessed using the CellTiter-Glo® Luminescent Cell Viability Assay (Promega), according to the manufacturer protocol. […] Cells were plated in black-walled 96-well plates (5000 cells per well for SKBR-3 and MCF7; 2000 cells per well for HCT116) and allowed to adhere overnight at 37° C. in a humidified atmosphere of 5% CO2. […] Five to eight triplicate datapoints were recorded for each experimental condition. At the end of the incubation luminescence was measured using a Perkin Elmer Wallac 1450 MicroBeta TriLux detector. Compound cytotoxicity was evaluated in comparison to cells treated with PBS (antibodies) or 0.1% DMSO (compounds). CC50 values were calculated by fitting viability data with a four-parameter logistic equation using a Kaleidagraph software.

Data set [6] has as its system HCT116 cells. Nature of the data set: Cell viability assay (CellTiter-Glo), HCT116. The class given is cell-based. The following applies: read-out: HCT116 CC50. The method, then: as §4
Data set [7] concerns MCF7 cells. Nature of the data set: Cell viability assay (CellTiter-Glo), MCF7, 96 h. The data set is classed as cell-based, human. The following applies: read-out: MCF7 CC50. The method, then: as §4

The results in this text go back to patent US20180078656A1, “CRYPTOPHYCIN-BASED ANTIBODY-DRUG CONJUGATES WITH NOVEL SELF-IMMOLATIVE LINKERS” (priority 2015, published 2018).

Where a name gives a salt, the structure may show the parent alone. Read-outs that look alike come from different tables or passages of the source.

For orientation: IC50 means the point on the concentration scale where inhibition reaches its midpoint. As to `COc1ccc(C[C@H]2NC(=O)/C=C/C[C@@H]([C@H](C)[C@@H](OC(=O)CNC(=O)[C@@H]3CCCN3C(=O)CNC(=O)[C@H](CCCNC(N)=O)NC(=O)[C@@H](NC(=O)CCOCCOCCOCCOCCn3cc(CCC(=O)N[C@H](Cc4ccccc4)C(=O)N[C@H]4CSSCC(C(=O)N[C@H](CO)[C@@H](C)O)NC(=O)C([C@@H](C)O)NC(=O)[C@H](CCCCN)NC(=O)[C@@H](Cc5c[nH]c6ccccc56)NC(=O)[C@H](Cc5ccccc5)NC4=O)nn3)C(C)C)[C@@H](Cl)c3ccccc3)OC(=O)[C@H](CC(C)C)OC(=O)C(C)(C)CNC2=O)cc1Cl` (some centres unmarked) [Oct-Cry55-Gly conjugate], in data set [1] (MCF7, 120 h incubation), the “fold difference of IC50 on MCF7, conjugate versus cryptophycin-55-glycinate” value was determined as 90 fold. The IC50 came to 27 nM in data set [1] (SSTR2-low MCF7, 120 h incubation) and 0.9 nM in data set [2].
Turning to “Azide-TEG-Val-Cit-Gly-Pro-Gly-cryptophycin-55 [Example 5]”, the values for the IC50 in data set [3] and in data set [4] were 1.7 nM and 3.6 nM, respectively.
Consider `C[C@@H](O)[C@@H]1NC(=O)[C@H](CCCCN)NC(=O)[C@@H](Cc2c[nH]c3ccccc23)NC(=O)[C@H](Cc2ccccc2)NC(=O)[C@@H](NC(=O)[C@H](N)Cc2ccccc2)CSSC[C@@H](C(=O)N[C@H](CO)[C@@H](C)O)NC1=O` [Octreotide], for which the “IC50, MCF7 (in words)” value in data set [1] (SSTR2-low MCF7, 120 h, tested […] to 10 uM) is listed as “completely ineffective”. Also, the “inhibition of AR42J viability” value in data set [2] (up to 10 uM) is listed as 30% inh. up to 10 uM.
What is called CC50 is the concentration at which the toxic effect on the cells reaches its halfway point. Consider “Maleimide-PEG-Val-Cit-Pro-Gly-Cryptophycin-55-glycinate [Cry-55-Linker]”, for which the CC50 in data set [5] (HER2-positive SK-BR3, 96 h incubation) amounted to 2.6 nM; in data set [6] (Her2-low HCT116, 96 h incubation), 4.4 nM; in data set [7] (Her2-low MCF7, 96 h incubation), 6.1 nM.
On to `COc1ccc(C[C@H]2NC(=O)/C=C/C[C@@H]([C@H](C)[C@@H](OC(=O)CN)[C@@H](Cl)c3ccccc3)OC(=O)[C@H](CC(C)C)OC(=O)C(C)(C)CNC2=O)cc1Cl` [Cry-55-Gly, Cryptophycin-55-glycinate trifluoroacetate], for which the CC50 stood at 0.09 nM in data set [5] (Homo sapiens, SK-BR-3, 96 h); 0.19 nM in data set [6] (Homo sapiens, HCT-116, 96 h); 0.25 nM in data set [7] (Homo sapiens, MCF7, 96 h). Moreover, the IC50 worked out at 0.2 nM in data set [1] (Homo sapiens, MCF7, 120 h); 0.09 nM in data set [3] (Homo sapiens, NCI-H69); 0.15 nM in data set [4] (Homo sapiens); 0.8 nM in data set [2] (Rattus norvegicus, AR-42J).
With `COc1ccc(C[C@H]2NC(=O)/C=C/C[C@@H]([C@H](C)[C@@H](O)[C@@H](Cl)c3ccccc3)OC(=O)[C@H](CC(C)C)OC(=O)C(C)(C)CNC2=O)cc1Cl` [Cry-55, Cryptophycin-55], the CC50 in data set [5] (Homo sapiens, SK-BR-3, 96 h) was 0.076 nM; in data set [6] (Homo sapiens, HCT-116, 96 h), 0.1 nM; in data set [7] (Homo sapiens, MCF7, 96 h), 0.18 nM. The IC50 in data set [3] (Homo sapiens, NCI-H69) worked out at 0.1 nM; in data set [4] (Homo sapiens), 0.23 nM.
Turning to `COc1cccc2c1C(=O)c1c(O)c3c(c(O)c1C2=O)C[C@@](O)(C(=O)CO)C[C@@H]3O[C@H]1C[C@H](N)[C@H](O)[C@H](C)O1` [doxorubicin], in data set [4] (120 h, 1.2 nM to 2700 nM), the “effect on H69AR cell viability (in words)” value is given as “only minor effects”.
